Assay results reported in patent US10323060B2, “Benzoic acid derivatives of bile acid as FXR/TGR5 agonists and methods of use thereof” (ENANTA PHARMACEUTICALS, INC., priority 2016, dated 2019).

Target: human FXR (NR1H4) (Homo sapiens (Human), UniProt Q96RI1)
Assay: Human FXR (NR1H4) Assay (luciferase reporter, Indigo Bioscience kit); as to Efficacy (%): efficacy normalized to CDCA set as 100%
Assay type: cell-based
Conditions: for EC50: FXR agonistic potency range, CHO reporter cells expressing human NR1H4, 22 hours incubation; for Emax: read-out: Efficacy (%)
Description: Assays Human FXR (NR1H4) Assay
Determination of a ligand mediated Gal4 promoter driven transactivation to quantify ligand binding mediated activation of FXR. FXR Reporter Assay kit purchased from Indigo Bioscience (Catalogue number: IB00601) to determine the potency and efficacy of compound developed by Enanta that can induce FXR activation. The principle application of this reporter assay system is to quantify functional activity of human FXR. The assay utilizes non-human mammalian cells, CHO (Chinese hamster ovary) cells engineered to express human NR1H4 protein (referred to as FXR). Reporter cells also incorporate the cDNA encoding beetle luciferase which catalyzes the substrates and yields photon emission. Luminescence intensity of the reaction is quantified using a plate-reading luminometer, Envision. Reporter Cells include the luciferase reporter gene functionally linked to an FXR responsive promoter. Thus, quantifying changes in luciferase expression in the treated reporter cells provides a sensitive surrogate measure of the changes in FXR activity. […] The assay is according to the manufacturer's instructions. In brief, the assay was performed in white, 96 well plates using final volume of 100 ul containing cells with different doses of compounds. Retrieve Reporter Cells from −80° C. storage. Perform a rapid thaw of the frozen cells by transferring a 10 ml volume of 37° C. cell recovery medium into the tube of frozen cells. Recap the tube of Reporter Cells and immediately place it in a 37° C. water bath for 5-10 minutes. Retrieve the tube of Reporter Cell Suspension from the water bath. Sanitize the outside surface of the tube with a 70% alcohol swab, and then transfer it into the cell culture hood. Dispense 90 μl of cell suspension into each well of the 96-well Assay Plate. Transfer the plate into 37° C. incubator, allowing the cells adherent to the bottom of the well. Dilute compounds in Dilution Plate (DP), and administrate to cells at Assay Plate (AP). DMSO content of the samples was kept at 0.2%. Cells were incubated for additional 22 hours before luciferase activities were measured. Thirty minutes before intending to quantify FXR activity, remove Detection Substrate and Detection Buffer from the refrigerator and place them in a low-light area so that they may equilibrate to room temperature. Remove the plate's lid and discard all media contents by ejecting it into an appropriate waste container. Gently tap the inverted plate onto a clean absorbent paper towel to remove residual droplets. Cells will remain tightly adhered to well bottoms. Add 100 μl of luciferase detection reagent to each well of the assay plate. Allow the assay plate to rest at room temperature for at least 5 minutes following the addition of LDR. Set the instrument (Envision) to perform a single 5 second “plate shake” prior to reading the first assay well. Read time may be 0.5 second (500 mSec) per well.

human FXR (NR1H4), sequence (Q96RI1 whole entry): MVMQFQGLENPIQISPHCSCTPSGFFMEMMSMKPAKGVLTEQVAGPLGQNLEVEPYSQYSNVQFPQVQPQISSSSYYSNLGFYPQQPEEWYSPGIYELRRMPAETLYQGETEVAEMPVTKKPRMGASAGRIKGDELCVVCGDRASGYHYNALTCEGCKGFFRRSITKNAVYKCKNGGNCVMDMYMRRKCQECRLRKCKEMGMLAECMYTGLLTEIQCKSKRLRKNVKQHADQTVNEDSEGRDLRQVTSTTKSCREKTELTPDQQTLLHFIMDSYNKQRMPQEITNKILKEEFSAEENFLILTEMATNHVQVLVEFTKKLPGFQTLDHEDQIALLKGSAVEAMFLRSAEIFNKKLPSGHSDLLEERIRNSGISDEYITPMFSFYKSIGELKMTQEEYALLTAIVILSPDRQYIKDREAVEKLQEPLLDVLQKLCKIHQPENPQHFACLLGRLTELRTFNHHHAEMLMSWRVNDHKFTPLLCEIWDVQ

Row | SMILES | EC50 [nM] | Emax [%]
1 | CC[C@H]1[C@@H](O)[C@@H]2[C@H](CC[C@]3(C)[C@@H]([C@H](C)C/C=C/c4ccccc4C#N)CC[C@@H]23)[C@@]2(C)CC[C@@H](O)C[C@@H]12 [Example 29] | 1000 to 10000 | 210
2 | CC[C@H]1[C@@H](O)[C@@H]2[C@H](CC[C@]3(C)[C@@H]([C@H](C)C/C=C/c4ccccc4C(=O)O)CC[C@@H]23)[C@@]2(C)CC[C@@H](O)C[C@@H]12 [Example 2] | < 100 | 313
3 | CC[C@H]1[C@@H](O)[C@@H]2[C@H](CC[C@]3(C)[C@@H]([C@H](C)CCCc4ccc(C(C)C(=O)O)cc4)CC[C@@H]23)[C@@]2(C)CC[C@@H](O)C[C@@H]12 (some centres unmarked) [Example 17] | 1000 to 10000 | 261
4 | CC[C@H]1[C@@H](O)[C@@H]2[C@H](CC[C@]3(C)[C@@H]([C@H](C)CCCc4ccc(F)cc4C(=O)O)CC[C@@H]23)[C@@]2(C)CC[C@@H](O)C[C@@H]12 [Example 26] | 100 to 1000 | 256
5 | CC[C@H]1[C@@H](O)[C@@H]2[C@H](CC[C@]3(C)[C@@H]([C@H](C)CC4CC4c4ccc(C(=O)O)cc4)CC[C@@H]23)[C@@]2(C)CC[C@@H](O)C[C@@H]12 (some centres unmarked) [Example 34] | 1000 to 10000 | 195
6 | CC[C@H]1[C@@H](O)[C@@H]2[C@H](CC[C@]3(C)[C@@H]([C@H](C)CCCc4cc(F)c(O)c(F)c4)CC[C@@H]23)[C@@]2(C)CC[C@@H](O)C[C@@H]12 [Example 5] | 1000 to 10000 | 271
7 | CC[C@H]1[C@@H](O)[C@@H]2[C@H](CC[C@]3(C)[C@@H]([C@H](C)CCCc4ccccc4C(=O)O)CC[C@@H]23)[C@@]2(C)CC[C@@H](O)C[C@@H]12 [Example 3] | 100 to 1000 | 352
8 | CC[C@H]1[C@@H](O)[C@@H]2[C@H](CC[C@]3(C)[C@@H]([C@H](C)Cc4nc5c(C(=O)OC)cccc5o4)CC[C@@H]23)[C@@]2(C)CC[C@@H](O)C[C@@H]12 [Example 6] | 1000 to 10000 | 131
9 | CC[C@H]1[C@@H](O)[C@@H]2[C@H](CC[C@]3(C)[C@@H]([C@H](C)CCCc4cccc(C(=O)O)c4)CC[C@@H]23)[C@@]2(C)CC[C@@H](O)C[C@@H]12 [Example 23] | 1000 to 10000 | 292
10 | CC[C@H]1[C@@H](O)[C@@H]2[C@H](CC[C@]3(C)[C@@H]([C@H](C)CCCn4nnnc4CC(=O)O)CC[C@@H]23)[C@@]2(C)CC[C@@H](O)C[C@@H]12 [Example 9] | 1000 to 10000 | 172
11 | CC[C@H]1[C@@H](O)[C@@H]2[C@H](CC[C@]3(C)[C@@H]([C@H](C)CCCn4nnc(CC(=O)O)n4)CC[C@@H]23)[C@@]2(C)CC[C@@H](O)C[C@@H]12 [Example 8] | 1000 to 10000 | 29
12 | CC[C@H]1[C@@H](O)[C@@H]2[C@H](CC[C@]3(C)[C@@H]([C@H](C)C/C=C/c4cccc(C(=O)OC)c4)CC[C@@H]23)[C@@]2(C)CC[C@@H](O)C[C@@H]12 [Example 21] | 1000 to 10000 | 92
13 | CC[C@H]1[C@@H](O)[C@@H]2[C@H](CC[C@]3(C)[C@@H]([C@H](C)CCOc4ccc(F)cc4C(=O)O)CC[C@@H]23)[C@@]2(C)CC[C@@H](O)C[C@@H]12 [Example 35] | 100 to 1000 | 203
14 | CC[C@H]1[C@@H](O)[C@@H]2[C@H](CC[C@]3(C)[C@@H]([C@H](C)CCCc4ccc(C(=O)O)cc4)CC[C@@H]23)[C@@]2(C)CC[C@@H](O)C[C@@H]12 [Example 20] | 1000 to 10000 | 266
15 | CC[C@H]1[C@@H](O)[C@@H]2[C@H](CC[C@]3(C)[C@@H]([C@H](C)C/C=C/c4ccc(C(=O)OC)cc4)CC[C@@H]23)[C@@]2(C)CC[C@@H](O)C[C@@H]12 [Example 18] | 1000 to 10000 | 113
16 | CC[C@H]1[C@@H](O)[C@@H]2[C@H](CC[C@]3(C)[C@@H]([C@H](C)C/C=C/c4ccccc4C(=O)OC)CC[C@@H]23)[C@@]2(C)CC[C@@H](O)C[C@@H]12 [Example 1] | 1000 to 10000 | 217
17 | CC[C@H]1[C@@H](O)[C@@H]2[C@H](CC[C@]3(C)[C@@H]([C@H](C)C/C=C/c4cccc(C(=O)O)c4)CC[C@@H]23)[C@@]2(C)CC[C@@H](O)C[C@@H]12 [Example 22] | 1000 to 10000 | 195
18 | CC[C@H]1[C@@H](O)[C@@H]2[C@H](CC[C@]3(C)[C@@H]([C@H](C)C/C=C/c4ccc(C(C)C(=O)O)cc4)CC[C@@H]23)[C@@]2(C)CC[C@@H](O)C[C@@H]12 (some centres unmarked) [Example 16] | 1000 to 10000 | 248
19 | CC[C@H]1[C@@H](O)[C@@H]2[C@H](CC[C@]3(C)[C@@H]([C@H](C)C/C=C/c4cnccc4C(=O)OC)CC[C@@H]23)[C@@]2(C)CC[C@@H](O)C[C@@H]12 [Example 27] | 1000 to 10000 | 296
